In the test the target is T1, androgen receptor (AR-LBD) (Rattus norvegicus, UniProt P15207).
T1 construct: 5 μL of 2×AR-LBD/Fluoromone AL Red Complex contained in the kit; purchased Invitrogen
T1 sequence (P15207 651-882 limits assumed): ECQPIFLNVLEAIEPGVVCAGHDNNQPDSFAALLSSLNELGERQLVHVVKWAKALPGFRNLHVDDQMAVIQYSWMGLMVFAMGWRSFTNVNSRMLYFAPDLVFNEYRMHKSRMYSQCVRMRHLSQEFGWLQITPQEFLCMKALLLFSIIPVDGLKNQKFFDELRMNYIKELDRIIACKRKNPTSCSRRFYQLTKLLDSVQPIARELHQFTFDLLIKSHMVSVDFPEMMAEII
Nature of the test: Evaluation of androgen receptor affinity (PolarScreen Androgen Receptor Competitor Assay Kit, Red; fluorescence polarization). The following applies: 22° C. for 5 hours, relative to binding rate of 1 μM DHT, read-out: AR affinity (pEC50) (converted). Put shortly:
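Test compound and the 2× AR-LBD/Fluoromone AL Red complex were combined in duplicate wells. After reacting 5 h at 22° C, polarization was measured. pEC50 was derived by 4-parameter fitting, normalizing to binding obtained with 1 μM dihydrotestosterone.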
(In fluorescence polarisation assays a small probe gives low polarisation when free and higher when bound to something large.)

Molecules are shown by their SMILES.

As for `Cc1sc(N(CC2CCOCC2)c2ccc(C#N)cc2)nc1C(=O)NS(C)(=O)=O` [Compound 346, 2-[4-cyano-N-(tetrahydropyran-4-ylmethyl)anilino]-5-methyl-N-methylsulfonyl-thiazole-4-carboxamide], the EC50 was above 2000 nM. For the molecule `Cc1sc(N(CC2CCC(=O)CC2)c2ccc(C#N)cc2)nc1C(=O)NS(C)(=O)=O` [Compound 350, 2-[4-cyano-N-[(4-oxocyclohexyl)methyl]anilino]-5-methyl-N-methylsulfonyl-thiazole-4-carboxamide], the EC50 was above 2000 nM. As to `Cc1sc(N(CC2CCC(N(C)C)CC2)c2ccc(C#N)cc2)nc1C(=O)NS(C)(=O)=O` (stereo not drawn) [Compound 352, 2-[4-cyano-N-[[4-(dimethylamino)cyclohexyl]methyl]anilino]-5-methyl-N-methylsulfonyl-thiazole-4-carboxamide], the EC50 was above 2000 nM. Turning to `Cc1sc(N(C[C@H]2CC[C@@H](O)CC2)c2ccc(C#N)cc2)nc1C(=O)NS(C)(=O)=O` [Compound 353, 2-[4-cyano-N-[(cis-4-hydroxycyclohexyl)methyl]anilino]-5-methyl-N-methylsulfonyl-thiazole-4-carboxamide], the EC50 is above 2000 nM. With `Cc1sc(N(C[C@H]2CC[C@H](O)CC2)c2ccc(C#N)cc2)nc1C(=O)NS(C)(=O)=O` [Compound 354, 2-[4-cyano-N-[(trans-4-hydroxycyclohexyl)methyl]anilino]-5-methyl-N-methylsulfonyl-thiazole-4-carboxamide], the EC50 was above 2000 nM. Take `Cc1sc(N(Cc2ccccc2CO)c2ccc(C#N)cc2)nc1C(=O)NS(C)(=O)=O` [Compound 355, 2-[4-cyano-N-[[2-(hydroxymethyl)phenyl]methyl]anilino]-5-methyl-N-methylsulfonyl-thiazole-4-carboxamide]: the EC50 is 501 nM.

Consider `Cc1sc(N(Cc2ccc(CO)cc2)c2ccc(C#N)cc2)nc1C(=O)NS(C)(=O)=O` [Compound 356, 2-[4-cyano-N-[[4-(hydroxymethyl)phenyl]methyl]anilino]-5-methyl-N-methylsulfonyl-thiazole-4-carboxamide], for which the EC50 was 631 nM.

`COCCN(c1ccc(C#N)cc1)c1nc(C(=O)NS(C)(=O)=O)c(C)s1` [Compound 357, 2-[4-cyano-N-(2-methoxyethyl)anilino]-5-methyl-N-methylsulfonyl-thiazole-4-carboxamide]: the EC50 is above 2000 nM. Consider `Cc1sc(N(CCCCO)c2ccc(C#N)cc2)nc1C(=O)NS(C)(=O)=O` [Compound 358, 2-[4-cyano-N-(4-hydroxybutyl)anilino]-5-methyl-N-methylsulfonyl-thiazole-4-carboxamide], for which the EC50 is above 2000 nM. As for `Cc1sc(N(CCCC#N)c2ccc(C#N)cc2)nc1C(=O)NS(C)(=O)=O` [Compound 360, 2-[4-cyano-N-(3-cyanopropyl)anilino]-5-methyl-N-methylsulfonyl-thiazole-4-carboxamide], the EC50 is above 2000 nM. As to `Cc1sc(N(Cc2ccccc2)c2ccc(C#N)cc2)nc1C(=O)NS(=O)(=O)CCN1C(=O)c2ccccc2C1=O` [Compound 373, 2-(N-benzyl-4-cyano-anilino)-N-[2-(1,3-dioxoisoindolin-2-yl)ethylsulfonyl]-5-methyl-thiazole-4-carboxamide], the EC50 was above 2000 nM. `Cc1sc(N(Cc2ccccc2)c2ccc(C#N)cc2)nc1C(=O)NS(=O)(=O)c1ccccc1` [Compound 375, N-(benzenesulfonyl)-2-(N-benzyl-4-cyano-anilino)-5-methyl-thiazole-4-carboxamide]: the EC50 is above 2000 nM. `COCC(CN(c1ccc(C#N)cc1)c1nc(C(=O)NS(C)(=O)=O)c(C)s1)c1ccccc1` (stereo not drawn) [Compound 377, 2-(4-cyano-N-(3-methoxy-2-phenyl-propyl)anilino)-5-methyl-N-methylsulfonyl-thiazole-4-carboxamide]: the EC50 was above 2000 nM. For the molecule `Cc1sc(N(Cc2cscn2)c2ccc(C#N)cc2)nc1C(=O)NS(C)(=O)=O` [Compound 380, 2-[4-cyano-N-(thiazol-4-ylmethyl)anilino]-5-methyl-N-methylsulfonyl-thiazole-4-carboxamide], the EC50 was 794 nM. On to `Cc1sc(N(Cc2ccccc2)c2ccc(C#N)cc2)nc1C(=O)NS(=O)(=O)c1cccnc1` [Compound 381, 2-(N-benzyl-4-cyano-anilino)-5-methyl-N-(3-pyridylsulfonyl)thiazole-4-carboxamide], for which the EC50 is 794 nM. In the case of `Cc1sc(N(Cc2ccccc2)c2ccc(C#N)cc2)nc1C(=O)NS(=O)(=O)CCN1C(=O)CCC1=O` [Compound 383, 2-(N-benzyl-4-cyano-anilino)-N-[2-(2,5-dioxopyrrolidin-1-yl)ethylsulfonyl]-5-methyl-thiazole-4-carboxamide] it was above 2000 nM; in that of `Cc1sc(N(Cc2ccccc2)c2ccc(C#N)cc2)nc1C(=O)NS(=O)(=O)/C=C/c1ccccc1` [Compound 385, 2-(N-benzyl-4-cyano-anilino)-5-methyl-N-[(E)-styryl]sulfonyl-thiazole-4-carboxamide], 794 nM; in that of `Cc1sc(N(Cc2ccc3nc[nH]c3c2)c2ccc(C#N)cc2)nc1C(=O)NS(C)(=O)=O` [Compound 389, 2-[N-(3H-benzimidazol-5-ylmethyl)-4-cyano-anilino]-5-methyl-N-methylsulfonyl-thiazole-4-carboxamide], 1580 nM.

On to `Cc1sc(N(Cc2nccs2)c2ccc(C#N)cc2)nc1C(=O)NS(C)(=O)=O` [Compound 392, 2-[4-cyano-N-(thiazol-2-ylmethyl)anilino]-5-methyl-N-methylsulfonyl-thiazole-4-carboxamide], for which the EC50 is above 2000 nM.

Take `Cc1sc(N(Cc2ccccc2)c2ccc(C#N)cc2)nc1C(=O)NS(=O)(=O)c1cn(C)cn1` [Compound 394, 2-(N-benzyl-4-cyano-anilino)-5-methyl-N-(1-methylimidazol-4-yl)sulfonyl-thiazole-4-carboxamide]: the EC50 is above 2000 nM.

On to `COCCOc1cccc(N(Cc2ccccc2)c2nc(C(=O)NS(C)(=O)=O)c(C)s2)c1` [Compound 398, 2-[N-benzyl-3-(2-methoxyethoxy)anilino]-5-methyl-N-methylsulfonyl-thiazole-4-carboxamide], for which the EC50 was above 2000 nM. Turning to `Cc1sc(N(Cc2cccc3cnccc23)c2ccc(C#N)cc2)nc1C(=O)NS(C)(=O)=O` [Compound 402, 2-[4-cyano-N-(5-isoquinolylmethyl)anilino]-5-methyl-N-methylsulfonyl-thiazole-4-carboxamide], the EC50 was 1000 nM.

For the molecule `Cc1sc(N(CC2CCCC2O)c2ccc(C#N)cc2)nc1C(=O)NS(C)(=O)=O` (stereo not drawn) [Compound 405, 2-[4-cyano-N-[(2-hydroxycyclopentyl)methyl]anilino]-5-methyl-N-methylsulfonyl-thiazole-4-carboxamide], the EC50 is above 2000 nM.

On to `Cc1sc(N(Cc2ccccc2)c2ccccn2)nc1C(=O)NS(C)(=O)=O` [Compound 408, 2-[benzyl(2-pyridyl)amino]-5-methyl-N-methylsulfonyl-thiazole-4-carboxamide], for which the EC50 was above 2000 nM. Regarding `Cc1sc(N(CC(=O)NC2CC2)c2ccc(C#N)cc2)nc1C(=O)NS(C)(=O)=O` [Compound 412, 2-(4-cyano-N-[2-(cyclopropylamino)-2-oxo-ethyl]anilino)-5-methyl-N-methylsulfonyl-thiazole-4-carboxamide], the EC50 is above 2000 nM. As to `Cc1sc(N(Cc2ccc(C(F)(F)F)cc2C(F)(F)F)c2ccc(C#N)cc2)nc1C(=O)NS(C)(=O)=O` [Compound 414, 2-[N-[[2,4-bis(trifluoromethyl)phenyl]methyl]-4-cyano-anilino]-5-methyl-N-methylsulfonyl-thiazole-4-carboxamide], the EC50 is 501 nM.

As to `Cc1sc(N(Cc2cc(C(F)(F)F)ccc2C(F)(F)F)c2ccc(C#N)cc2)nc1C(=O)NS(C)(=O)=O` [Compound 415, 2-[N-[[2,5-bis(trifluoromethyl)phenyl]methyl]-4-cyano-anilino]-5-methyl-N-methylsulfonyl-thiazole-4-carboxamide], the EC50 is above 2000 nM.

Regarding `Cc1sc(N(Cc2ccccc2)c2ccncc2)nc1C(=O)NS(C)(=O)=O` [Compound 422, 2-[benzyl(4-pyridyl)amino]-5-methyl-N-methylsulfonyl-thiazole-4-carboxamide], the EC50 was 1260 nM.

Consider `Cc1sc(N(CC(=O)NC2CCCCC2)c2ccc(C#N)cc2)nc1C(=O)NS(C)(=O)=O` [Compound 423, 2-(4-cyano-N-[2-(cyclohexylamino)-2-oxo-ethyl]anilino)-5-methyl-N-methylsulfonyl-thiazole-4-carboxamide], for which the EC50 is above 2000 nM.

For `Cc1sc(N(CC(=O)N(C)C2CCCCC2)c2ccc(C#N)cc2)nc1C(=O)NS(C)(=O)=O` [Compound 424, 2-(4-cyano-N-[2-[cyclohexyl(methyl)amino]-2-oxo-ethyl]anilino)-5-methyl-N-methylsulfonyl-thiazole-4-carboxamide], the EC50 was above 2000 nM. In the case of `Cc1sc(N(CC(=O)Nc2ccccc2)c2ccc(C#N)cc2)nc1C(=O)NS(C)(=O)=O` [Compound 425, 2-(N-(2-anilino-2-oxo-ethyl)-4-cyano-anilino)-5-methyl-N-methylsulfonyl-thiazole-4-carboxamide] it was 1260 nM; in that of `Cc1sc(N(CC(=O)N(C)c2ccccc2)c2ccc(C#N)cc2)nc1C(=O)NS(C)(=O)=O` [Compound 426, 2-(4-cyano-N-[2-(N-methylanilino)-2-oxo-ethyl]anilino)-5-methyl-N-methylsulfonyl-thiazole-4-carboxamide], above 2000 nM; in that of `Cc1sc(N(CC2CCCC(O)C2)c2ccc(C#N)cc2)nc1C(=O)NS(C)(=O)=O` (stereo not drawn) [Compound 427, 2-[4-cyano-N-[(3-hydroxycyclohexyl)methyl]anilino]-5-methyl-N-methylsulfonyl-thiazole-4-carboxamide], above 2000 nM.

Values taken from patent US10689354B2, “Aminoazole derivative” (Teijin Pharma Limited, priority 2015, dated 2020).
